These molecules were tested on Rattus norvegicus (assay: Accumulation of 5-Hydroxytryptophan in striatal region in rat after injecting drug compound 65 min and NSD 1015 at a dose of 100 mg/kg administered subcutaneously, 30 min before death, tested in vivo). Conditions: route subcutaneous.
Type: functional

SMILES	Control [%]
c1ccc2c(C3CCNC3)cccc2c1 (stereo not drawn)	93
CCCN1CCC[C@@H](c2cccc(S(C)(=O)=O)c2)C1	85
CCCN1CCC(c2cccc(O)c2)C1 (stereo not drawn)	68
CCCN1CCC(c2cccnc2)C1 (stereo not drawn)	104
CCCN1CCC(c2cccc(C(F)(F)F)c2)C1 (stereo not drawn)	78
CCCN1CCC(c2cccc(S(C)(=O)=O)c2)C1 (stereo not drawn)	78
CS(=O)(=O)c1cccc(C2CCNC2)c1 (stereo not drawn)	92

What follows are molecules tested on Rattus norvegicus (assay: Accumulation of Dihydroxyphenylalanine in limbic region in rat after injecting drug compound 65 min and NSD 1015 at a dose of 100 mg/kg administered subcutaneously, 30 min before death, tested in vivo). Conditions: route subcutaneous.
Type: functional, Limbic system

SMILES	Control [%]
c1ccc2c(C3CCNC3)cccc2c1 (stereo not drawn)	92
CCCN1CCC[C@@H](c2cccc(S(C)(=O)=O)c2)C1	228
CCCN1CCC(c2cccc(O)c2)C1 (stereo not drawn)	113
CCCN1CCC(c2cccnc2)C1 (stereo not drawn)	111
CCCN1CCC(c2cccc(C(F)(F)F)c2)C1 (stereo not drawn)	205
CCCN1CCC(c2cccc(S(C)(=O)=O)c2)C1 (stereo not drawn)	207
CS(=O)(=O)c1cccc(C2CCNC2)c1 (stereo not drawn)	89

What follows are molecules tested against T1, 5-hydroxytryptamine receptor 1A (Rattus norvegicus, UniProt P19327) (assay: Binding affinity against [3H]8-OH-DPAT binding to 5-hydroxytryptamine 1A receptor expressed in CHO-K1 cells). Conditions: not given.
T1 sequence (P19327 whole entry): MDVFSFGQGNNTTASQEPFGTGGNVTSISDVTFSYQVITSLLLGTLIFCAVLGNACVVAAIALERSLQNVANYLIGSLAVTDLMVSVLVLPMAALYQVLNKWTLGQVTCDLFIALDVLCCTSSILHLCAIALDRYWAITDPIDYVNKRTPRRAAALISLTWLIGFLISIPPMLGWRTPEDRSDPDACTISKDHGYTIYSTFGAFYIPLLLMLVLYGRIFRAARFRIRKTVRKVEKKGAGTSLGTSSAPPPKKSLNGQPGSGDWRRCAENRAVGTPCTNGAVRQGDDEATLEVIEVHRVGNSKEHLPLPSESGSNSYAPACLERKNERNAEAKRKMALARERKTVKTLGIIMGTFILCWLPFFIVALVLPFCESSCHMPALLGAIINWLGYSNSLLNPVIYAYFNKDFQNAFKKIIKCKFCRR
Type: cell-based

SMILES	Ki [nM]
c1ccc2c(C3CCNC3)cccc2c1 (stereo not drawn)	95
CCCN1CCC(c2cccc(O)c2)C1 (stereo not drawn)	201
CCCN1CCC(c2cccc(C(F)(F)F)c2)C1 (stereo not drawn)	351
CCCN1CCC(c2cccc(S(C)(=O)=O)c2)C1 (stereo not drawn)	807

The molecules below were run on Rattus norvegicus (assay: Accumulation of Dihydroxyphenylalanine in striatal region in rat after injecting drug compound 65 min and NSD 1015 at a dose of 100 mg/kg administered subcutaneously, 30 min before death, tested in vivo). Conditions: route subcutaneous.
Type: functional

SMILES	Control [%]
c1ccc2c(C3CCNC3)cccc2c1 (stereo not drawn)	82
CCCN1CCC[C@@H](c2cccc(S(C)(=O)=O)c2)C1	317
CCCN1CCC(c2cccc(O)c2)C1 (stereo not drawn)	153
CCCN1CCC(c2cccnc2)C1 (stereo not drawn)	108
CCCN1CCC(c2cccc(C(F)(F)F)c2)C1 (stereo not drawn)	297
CCCN1CCC(c2cccc(S(C)(=O)=O)c2)C1 (stereo not drawn)	256
CS(=O)(=O)c1cccc(C2CCNC2)c1 (stereo not drawn)	91

The molecules below were run against T2, Serotonin 2 (5-HT2) receptor (Rattus norvegicus, UniProt P30994+P08909+P14842) (assay: Binding affinity against [3H]ketanserin binding to 5-hydroxytryptamine 2 receptor expressed in CHO-K1 cells). Conditions: not given.
Type: cell-based

SMILES	Ki [nM]
c1ccc2c(C3CCNC3)cccc2c1 (stereo not drawn)	40
CCCN1CCC(c2cccc(C(F)(F)F)c2)C1 (stereo not drawn)	569

What follows are molecules tested against T3, D(2) dopamine receptor (Rattus norvegicus, UniProt P61169) (assay: Inhibitory concentration against [3H]U-86170 binding to Dopamine receptor D2 expressed in CHO-K1 cells). Conditions: not given.
T3 sequence (P61169 whole entry): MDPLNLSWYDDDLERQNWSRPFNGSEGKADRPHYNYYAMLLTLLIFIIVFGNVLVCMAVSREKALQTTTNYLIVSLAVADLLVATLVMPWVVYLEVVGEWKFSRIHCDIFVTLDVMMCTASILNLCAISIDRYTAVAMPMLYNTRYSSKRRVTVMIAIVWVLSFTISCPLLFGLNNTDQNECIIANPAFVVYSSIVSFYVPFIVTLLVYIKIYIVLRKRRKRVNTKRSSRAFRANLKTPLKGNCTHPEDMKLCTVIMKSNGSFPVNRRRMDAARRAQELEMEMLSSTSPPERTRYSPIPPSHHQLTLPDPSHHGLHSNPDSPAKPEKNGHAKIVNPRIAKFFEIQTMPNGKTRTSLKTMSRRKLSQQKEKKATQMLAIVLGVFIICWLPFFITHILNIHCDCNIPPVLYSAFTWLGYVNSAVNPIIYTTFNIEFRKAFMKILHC
Type: cell-based

SMILES	IC50 [nM]
CCCN1CCC(c2cccnc2)C1 (stereo not drawn)	> 1000
CCCN1CCC(c2cccc(S(C)(=O)=O)c2)C1 (stereo not drawn)	> 1000
CS(=O)(=O)c1cccc(C2CCNC2)c1 (stereo not drawn)	> 1000

These molecules were tested against T4, D(3) dopamine receptor (Rattus norvegicus, UniProt P19020) (assay: Binding affinity against [3H]spiperone binding to Dopamine receptor D3 expressed in CHO-K1 cells). Conditions: not given.
T4 sequence (P19020 whole entry): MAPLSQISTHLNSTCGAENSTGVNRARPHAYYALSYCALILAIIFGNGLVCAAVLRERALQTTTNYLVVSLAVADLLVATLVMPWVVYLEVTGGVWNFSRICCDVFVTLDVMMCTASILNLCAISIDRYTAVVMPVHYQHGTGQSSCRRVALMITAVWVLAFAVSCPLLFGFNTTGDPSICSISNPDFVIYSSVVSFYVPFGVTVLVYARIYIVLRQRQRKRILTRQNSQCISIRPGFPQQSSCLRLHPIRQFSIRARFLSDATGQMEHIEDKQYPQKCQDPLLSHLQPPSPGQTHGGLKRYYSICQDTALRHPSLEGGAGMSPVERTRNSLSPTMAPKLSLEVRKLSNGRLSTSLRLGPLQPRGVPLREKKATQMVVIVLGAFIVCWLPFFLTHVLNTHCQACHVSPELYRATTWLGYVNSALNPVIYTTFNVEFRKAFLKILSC
Type: cell-based

SMILES	Ki [nM]
CCCN1CCC(c2cccc(O)c2)C1 (stereo not drawn)	52
CCCN1CCC(c2cccc(C(F)(F)F)c2)C1 (stereo not drawn)	35

Each molecule was assayed against T1, 5-hydroxytryptamine receptor 1A (assay: Inhibitory concentration against [3H]8-OH-DPAT binding to 5-hydroxytryptamine 1A receptor expressed in CHO-K1 cells). Conditions: not given.
Type: cell-based

SMILES	IC50 [nM]
CCCN1CCC(c2cccnc2)C1 (stereo not drawn)	> 1000
CS(=O)(=O)c1cccc(C2CCNC2)c1 (stereo not drawn)	> 1000

What follows are molecules tested against T3, D(2) dopamine receptor (assay: Binding affinity against [3H]U-86170 binding to Dopamine receptor D2 expressed in CHO-K1 cells). Conditions: not given.
Type: cell-based

SMILES	Ki [nM]
c1ccc2c(C3CCNC3)cccc2c1 (stereo not drawn)	264
CCCN1CCC(c2cccc(O)c2)C1 (stereo not drawn)	68
CCCN1CCC(c2cccc(C(F)(F)F)c2)C1 (stereo not drawn)	151

What follows are molecules tested on Rattus norvegicus (assay: Accumulation of Dihydroxyphenylalanine in cortical brain region in rat after injecting drug compound 65 min and NSD 1015 at a dose of 100 mg/kg administered subcutaneously, 30 min before death, tested in vivo). Conditions: route subcutaneous.
Type: functional

SMILES	Control [%]
c1ccc2c(C3CCNC3)cccc2c1 (stereo not drawn)	104
CCCN1CCC[C@@H](c2cccc(S(C)(=O)=O)c2)C1	165
CCCN1CCC(c2cccc(O)c2)C1 (stereo not drawn)	88
CCCN1CCC(c2cccnc2)C1 (stereo not drawn)	132
CCCN1CCC(c2cccc(C(F)(F)F)c2)C1 (stereo not drawn)	131
CCCN1CCC(c2cccc(S(C)(=O)=O)c2)C1 (stereo not drawn)	143
CS(=O)(=O)c1cccc(C2CCNC2)c1 (stereo not drawn)	104

Each molecule was assayed on Rattus norvegicus (assay: Accumulation of 5-Hydroxytryptophan in cortical brain region in rat after injecting drug compound 65 min and NSD 1015 at a dose of 100 mg/kg administered subcutaneously, 30 min before death, tested in vivo). Conditions: route subcutaneous.
Type: functional

SMILES	Control [%]
c1ccc2c(C3CCNC3)cccc2c1 (stereo not drawn)	86
CCCN1CCC[C@@H](c2cccc(S(C)(=O)=O)c2)C1	78
CCCN1CCC(c2cccc(O)c2)C1 (stereo not drawn)	79
CCCN1CCC(c2cccnc2)C1 (stereo not drawn)	94
CCCN1CCC(c2cccc(C(F)(F)F)c2)C1 (stereo not drawn)	87
CCCN1CCC(c2cccc(S(C)(=O)=O)c2)C1 (stereo not drawn)	92
CS(=O)(=O)c1cccc(C2CCNC2)c1 (stereo not drawn)	98

These molecules were tested on Rattus norvegicus (assay: Accumulation of 5-Hydroxytryptophan in limbic region in rat after injecting drug compound 65 min and NSD 1015 at a dose of 100 mg/kg administered subcutaneously, 30 min before death, tested in vivo). Conditions: route subcutaneous.
Type: functional, Limbic system

SMILES	Control [%]
c1ccc2c(C3CCNC3)cccc2c1 (stereo not drawn)	94
CCCN1CCC[C@@H](c2cccc(S(C)(=O)=O)c2)C1	83
CCCN1CCC(c2cccc(O)c2)C1 (stereo not drawn)	74
CCCN1CCC(c2cccnc2)C1 (stereo not drawn)	90
CCCN1CCC(c2cccc(C(F)(F)F)c2)C1 (stereo not drawn)	97
CCCN1CCC(c2cccc(S(C)(=O)=O)c2)C1 (stereo not drawn)	97
CS(=O)(=O)c1cccc(C2CCNC2)c1 (stereo not drawn)	96

Each molecule was assayed against T2, Serotonin 2 (5-HT2) receptor (assay: Inhibitory concentration against [3H]ketanserin binding to 5-hydroxytryptamine 2 receptor expressed in CHO-K1 cells). Conditions: not given.
Type: cell-based

SMILES	IC50 [nM]
CCCN1CCC(c2cccc(O)c2)C1 (stereo not drawn)	> 1000
CCCN1CCC(c2cccnc2)C1 (stereo not drawn)	> 1000
CCCN1CCC(c2cccc(S(C)(=O)=O)c2)C1 (stereo not drawn)	> 1000
CS(=O)(=O)c1cccc(C2CCNC2)c1 (stereo not drawn)	> 1000

These molecules were tested against T4, D(3) dopamine receptor (assay: Inhibitory concentration against [3H]spiperone binding to Dopamine receptor D3 expressed in CHO-K1 cells). Conditions: not given.
Type: cell-based

SMILES	IC50 [nM]
c1ccc2c(C3CCNC3)cccc2c1 (stereo not drawn)	> 1000
CCCN1CCC(c2cccnc2)C1 (stereo not drawn)	> 1000
CCCN1CCC(c2cccc(S(C)(=O)=O)c2)C1 (stereo not drawn)	> 1000
CS(=O)(=O)c1cccc(C2CCNC2)c1 (stereo not drawn)	> 1000

Each molecule was assayed on Rattus norvegicus (assay: Locomotor activity, measured for 30 min after injection of drug, administered subcutaneously at 100 umol/kg). Conditions: not given.
Type: functional

SMILES	Control [%]
c1ccc2c(C3CCNC3)cccc2c1 (stereo not drawn)	129
CCCN1CCC[C@@H](c2cccc(S(C)(=O)=O)c2)C1	135
CCCN1CCC(c2cccc(O)c2)C1 (stereo not drawn)	20
CCCN1CCC(c2cccnc2)C1 (stereo not drawn)	15
CCCN1CCC(c2cccc(C(F)(F)F)c2)C1 (stereo not drawn)	89
CCCN1CCC(c2cccc(S(C)(=O)=O)c2)C1 (stereo not drawn)	126
CS(=O)(=O)c1cccc(C2CCNC2)c1 (stereo not drawn)	71

From ChEMBL document CHEMBL1159176, “Regioselective synthesis of 3-aryl substituted pyrrolidines via palladium catalyzed arylation: pharmacological evaluation for central dopaminergic and serotonergic activity” (Bioorg Med Chem Lett, 1997)
